The subject of the data set is rodent carcinogenicity bioassays, tumor incidence. Briefly: CCRIS carcinogenicity studies. A digest of the protocol: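 NCI-built, expert-reviewed records of carcinogenicity and related test outcomes (mutagenicity, tumor promotion/inhibition) compiled from published and report sources, historical span 1985-2011, not updated.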

The source made the active and inactive calls. The rule behind the calls is not given here.

As for `CC(CNN)c1ccccc1` (stereo not drawn), the carcinogen call was “inactive; negative” (Species: MOUSE, Strain/Sex: SWISS/FEMALE, Route: ORAL, Dose: 0, 156, 312 PPM IN DRINKING WATER DAILY FOR LIFE (STUDY DURATION: 120-140 WK), Dose: 0, 156, 312 PPM IN DRINKING WATER DAILY FOR LIFE (STUDY DURATION: 120-140 WK)) and “inactive; negative” (Species: MOUSE, Strain/Sex: SWISS/MALE, Route: ORAL, Dose: 0, 156, 312 PPM IN DRINKING WATER DAILY FOR LIFE (STUDY DURATION: 120-140 WK), Dose: 0, 156, 312 PPM IN DRINKING WATER DAILY FOR LIFE (STUDY DURATION: 120-140 WK)).
For `CN(C)/N=N/c1nc[nH]c1C(N)=O`, the carcinogen call runs as follows: (Species: RAT, Strain/Sex: BUFFALO/FEMALE, Route: ORAL, Dose: 0, 500, MG/KG IN DIET FOR 11 WK, Dose: 0, 500, MG/KG IN DIET FOR 11 WK, Tumor Site: Type of Lesion: MAMMARY GLAND: ADENOCARCINOMA, THYMUS GLAND: LYMPHOSARCOMA) “active; positive”; (Species: RAT, Strain/Sex: SPRAGUE-DAWLEY/FEMALE, Route: INTRAPERITONEAL, Dose: 0, 100, 250, 400 MG/RAT IN CITRATE-MANNITOL SOLN, Dose: 0, 100, 250, 400 MG/RAT IN CITRATE-MANNITOL SOLN, Tumor Site: Type of Lesion: MAMMARY GLAND: ADENOCARCINOMA) “active; positive”; (Species: RAT, Strain/Sex: SPRAGUE-DAWLEY/FEMALE, Route: ORAL, Dose: 346, 574, 740 MG/KG (TOTAL DOSE), Dose: 346, 574, 740 MG/KG (TOTAL DOSE), Tumor Site: Type of Lesion: MAMMARY GLAND: ADENOCARCINOMA, CARCINOMA, ADENOFIBROMA, THYMUS GLAND: LYMPHOSARCOMA, SPLEEN: LYMPHOSARCOMA, BRAIN: EPEND, Tumor Site: Type of Lesion: MAMMARY GLAND: ADENOCARCINOMA, CARCINOMA, ADENOFIBROMA, THYMUS GLAND: LYMPHOSARCOMA, SPLEEN: LYMPHOSARCOMA, BRAIN: EPEND) “active; positive”; (Species: RAT, Strain/Sex: SPRAGUE-DAWLEY/MALE, Route: ORAL, Dose: 608, 974 MG/KG (TOTAL DOSE), Tumor Site: Type of Lesion: MAMMARY GLAND: ADENOCARCINOMA, THYMUS GLAND: LYMPHOSARCOMA, SPLEEN: LYMPHOSARCOMA, Tumor Site: Type of Lesion: MAMMARY GLAND: ADENOCARCINOMA, THYMUS GLAND: LYMPHOSARCOMA, SPLEEN: LYMPHOSARCOMA) “active; positive”.
Regarding `CCOc1ccc(NC(C)=O)cc1`, the carcinogen call reads like this: (Species: MOUSE, Strain/Sex: B6C3F1/MALE, Route: ORAL, Dose: 0.6, 1.25% IN DIET, Tumor Site: Type of Lesion: KIDNEY: RENAL CELL ADENOMA, RENAL CELL CARCINOMA) “active; positive”; (Species: RAT, Strain/Sex: SD/CSHI/MALE, Route: ORAL, Dose: 0, 2% IN DIET FOR 85 WK (STUDY DURATION: 85 WK), Tumor Site: Type of Lesion: RENAL PELVIS: CARCINOMA, PAPILLOMA, URINARY BLADDER: PAPILLOMA) “active; positive”; (Species: RAT, Strain/Sex: SPRAGUE-DAWLEY/FEMALE, Route: ORAL, Dose: 1.25, 2.5% IN DIET FOR 18 MO, Tumor Site: Type of Lesion: NASAL CAVITY) “active; positive”; (Species: RAT, Strain/Sex: SPRAGUE-DAWLEY/MALE, Route: ORAL, Dose: 0, 0.535% IN DIET FOR 117 WK, Tumor Site: Type of Lesion: KIDNEY, NASAL CAVITY: SQUAMOUS CELL CARCINOMA) “active; positive”; (Species: RAT, Strain/Sex: SPRAGUE-DAWLEY/MALE, Route: ORAL, Dose: 1.25, 2.5% IN DIET FOR 18 MO, Tumor Site: Type of Lesion: NASAL CAVITY, URINARY TRACT) “active; positive”.
Turning to `Nc1nc2c(ncn2[C@@H]2C[C@H](CO)[C@H]2CO)c(=O)[nH]1`, the carcinogen call reads like this: (Species: Mouse, Strain/Sex: CD-1/Female (60/Group), Route: Oral, Dose: 0, 30, 150, 750 mg/kg in diet for 104 wk, Dose: 0, 30, 150, 750 mg/kg in diet for 104 wk, Tumor Site: Type of Lesion: Upper digestive tract: squamous cell papilloma and carcinoma (0/60 and 0/60 in controls vs 0/60, 3/60, and 4/60, respect) “active; positive”; (Species: Mouse, Strain/Sex: CD-1/Male (60/Group), Route: Oral, Dose: 0, 10, 50, 250 mg/kg in diet for 104 wk, Dose: 0, 10, 50, 250 mg/kg in diet for 104 wk, Tumor Site: Type of Lesion: Upper digestive tract: squamous cell papilloma or carcinoma (0/60 and 0/60 in controls vs 0/60, 3/60, and 4/60, respecti) “active; positive”.

Source of the values: PubChem BioAssay AID1259411 (Chemical Carcinogenesis Research Information System (CCRIS), 2018).
